Where two headings read alike, the source gives them in different places.
Legend:
HIV-1 SF33 [1] = test: HIV-1 inhibition assay, TZM-bl cells, luciferase; type: cell-based; conditions: for IC50: Human immunodeficiency virus 1
Procedure: (§1) The inhibitory activity of BmPCP, APCP, BPCP and EPCP on infection by laboratory-adapted HIV-1 strains was tested in TZM-bl cells, MT4 cells or PBMCs, respectively, as previously described. TZM-bl cells were seeded at 10^4/well and cultured in a 96-well tissue culture plate overnight, followed by addition of 200 TCID50 (50% Tissue Culture Infective Dose) of HIV-1 virus. After incubation at 37°C for 2 hrs, BmPCP at graded concentrations was added. After further incubation at 37°C for 48 hrs, the luciferase activity was measured using a luciferase assay kit (Promega Corp.) according to the manufacturer's instructions. MT4 cells (4 × 10^4/well) and PBMCs (1 × 10^5/well) were infected by addition of 200 TCID50 of HIV-1 virus, followed by incubation for 2 hrs at 37°C before addition of BmPCP at serial dilutions. After further incubation at 37°C for 4 days (for MT4 cells) or 7 days (for PBMCs), HIV-1 p24 was measured using a commercial enzyme-linked immunosorbent assay (ELISA) kit (Vironostika HIV-1 Microelisa system; BioMérieux; Marcy l'Etoile, France). The inhibitory activity of BmPCP on infection by primary HIV-1 isolates was also tested in PBMCs as described above. The percent of inhibition and the IC50 were calculated as previously described.

HIV-1 SF33 [2] = test: HIV-1 inhibition assay, PBMCs, p24 ELISA; type: cell-based; conditions: for IC50: Human immunodeficiency virus 1, PBMC
Procedure: as §1

HIV-1SF33 = test: Time-of-addition assay; type: cell-based; conditions: for Antiviral activity in time-of-addition assay: added eight hours post-infection, BmPCP 13.3 μM, NVP 5 μM
Procedure: Figure 2 Time-of-addition assay of compounds. TZM-bl cells were infected with HIV-1SF33 at 200 TCID50.
MT4 cells were seeded at 10^4/well and cultured in a 96-well tissue culture plate overnight, followed by addition of 200 TCID50 of HIV-1SF33. […] HIV-1 p24 was measured using a commercial enzyme-linked immunosorbent assay (ELISA) kit (Vironostika HIV-1 Microelisa system; BioMérieux; Marcy l'Etoile, France).

HIV-1 SF33 [3] = test: HIV-1 inhibition assay, MT4 cells, p24 ELISA; type: cell-based; conditions: for IC50: Human immunodeficiency virus 1
Procedure: as §1

HIV-1 AH259 = test: Primary HIV-1 isolate inhibition in PBMCs; type: cell-based; conditions: primary isolate AH259, subtype B', R5, PBMCs; for IC50: Human immunodeficiency virus 1, PBMC
Procedure: (§2) HIV-1CRF07_BC and B' (Thailand B, a kind variant of subtype B) are two epidemic strains in China. Furthermore, to verify the antiviral activity on China clinical isolates, CRF07_BC and B' were chosen.
as §1

HIV-1 AH968 = test: Primary HIV-1 isolate inhibition in PBMCs; type: cell-based; conditions: primary isolate AH968, subtype B', R5, PBMCs; for IC50: Human immunodeficiency virus 1, PBMC
Procedure: as §2, §1

HIV-1 XJ6291 = test: Primary HIV-1 isolate inhibition in PBMCs; type: cell-based; conditions: for IC50: Human immunodeficiency virus 1, PBMC
Procedure: as §2, §1

HIV-1 AH104 = test: Primary HIV-1 isolate inhibition in PBMCs; type: cell-based; conditions: Human immunodeficiency virus 1, PBMC; primary isolate AH104, subtype B', X4/R5, PBMCs
Procedure: as §2, §1

HIV-1 XJ0793 = test: Primary HIV-1 isolate inhibition in PBMCs; type: cell-based; conditions: primary isolate XJ0793, subtype B'/C, R5, PBMCs; for IC50: Human immunodeficiency virus 1, PBMC
Procedure: as §2, §1

HIV-1 XJ257 = test: Primary HIV-1 isolate inhibition in PBMCs; type: cell-based; conditions: primary isolate XJ257, subtype B'/C, R5, PBMCs; for IC50: Human immunodeficiency virus 1, PBMC
Procedure: as §2, §1

HIV-1 1617-1 = test: microbe, parasite or virus in culture; type: cell-based
Procedure: We tested the antiviral activity of BmPCP in three cells including peripheral blood mononuclear cells (PBMCs), TZM-b1 and MT4 cells by using HIV-1SF33 and HIV-1 1617-1, a variant bearing K70G, 184V, 75I, 77L, I16Y and I51M mutations, which are resistant to NRTIs (e.g., d4T, DDI and AZT).
as §1

XTT cytotoxicity assay = type: cell-based; conditions: human
Procedure: (§3) XTT assay was used to test the cytotoxicity of BmPCP on MT4 cells, human PBMCs (non-stimulated) and TZM-bl cells.
(§4) An XTT assay, as previously described, was used for assessing the cytotoxicity of BmPCP to the cells tested for anti-HIV-1 activity. Briefly, BmPCP at graded concentrations was added to MT4 cells, PBMCs, and TZM-bl cells at 4 × 10^4, 1 × 10^5 and 1 × 10^4 cells per well, respectively, followed by an incubation at 37°C for 3 days. Ten microliters of CCK-8 reagent was added to the cells. After incubation at 37°C, for 4 h to allow color development of the XTT formazan product, the absorbance of each well was then read at 450 nm in a Victor2 1420 Multilabel Counter (Wallace-PerkinElmer Life and Analytical Sciences Inc., Boston, MA). The percent of cytotoxicity and CC50 were calculated as previously described.

[4] = XTT cytotoxicity assay, summary over cells; type: cell-based; conditions: human, human PBMCs (non-stimulated) and TZM-bl cells, MT4, PBMCs and TZM-bl cells, read-out: CC50, range
Procedure: as §3, §4

[5] = biological target: HIV-1 reverse transcriptase (Human immunodeficiency virus type 1 group M subtype B, UniProt P04585); test: ELISA RT assay for inhibition of HIV-1 reverse transcriptase activity
Text: Oligo(dT) 15 was immobilized via its 5'-terminal phosphate to Covalink-NH microtiter plates. The biotin-dUTP was incorporated by reverse transcriptase. The products were detected and quantified using a colorimetric strep- tavidin-alkaline phosphatase reporter system.
Briefly, Oligo(dT) 15 was immobilized via its 5'-terminal phosphate to CovaLink NH microtiter plates. The biotin-dUTP was incorporated by reverse transcriptase. The products were detected and quantified using a colorimetric streptavidin alkaline phosphatase reporter system.

HIV-1 = HIV-1 inhibition assays, summary over strains and cells; type: cell-based; conditions: broad spectrum of HIV-1 strains incl. Chinese clinical isolates
Procedure: as §1

TZM-bl cells = test: XTT cytotoxicity assay; type: cell-based
Procedure: as §3, §4

MT4 cells = test: XTT cytotoxicity assay; type: cell-based
Procedure: as §3, §4

[6] = Human immunodeficiency virus 1, MT4
[7] = Human immunodeficiency virus 1, PBMC
[8] = Human immunodeficiency virus 1, TZM-bl

Row | Compound | IC50 (HIV-1 SF33 [1]) [nM] | IC50 (HIV-1 SF33 [2]) [nM] | Antiviral activity in time-of-addition assay (HIV-1SF33) | IC50 (HIV-1 SF33 [3]) [nM] | IC50 (HIV-1 AH259) [nM] | IC50 (HIV-1 AH968) [nM] | IC50 (HIV-1 AH104) [nM] | IC50 (HIV-1 XJ0793) [nM] | IC50 (HIV-1 XJ257) [nM] | IC50 (HIV-1 1617-1; [6]) [nM] | IC50 (HIV-1 1617-1; [7]) [nM] | IC50 (HIV-1 1617-1; [8]) [nM] | SI (Selectivity index = CC50/IC50) (HIV-1 SF33 [1]) | CC50 at 3 days (XTT cytotoxicity assay; MT4 cells) [nM] | CC50 at 3 days (XTT cytotoxicity assay; TZM-bl cells) [nM] | SI (Selectivity index = CC50/IC50) (HIV-1 SF33 [3]) | other results
1 | Cc1ccnc2c1NC(=O)c1cccnc1N2C1CC1 [NVP, nevirapine, reference compound] | 190 ± 20 | 690 ± 70 | demonstrated antiviral activity | 650 ± 230 | 7 ± 1 | 58 ± 60 | 7 ± 3 | 79 ± 97 | 211 ± 120 | 440 ± 120 | 570 ± 80 | 160 ± 100 | – | – | – | – | IC50 (HIV-1 XJ6291; primary isolate XJ6291, subtype B'/C, R5, PBMCs, read-out: IC50): 186 ± 224 nM
2 | CCOCn1c2c(c(=O)[nH]c1=O)CCCCC2c1ccccc1 (stereo not drawn) [EPCP] | 1600 | – | – | 7500 | – | – | – | – | – | – | – | – | 13.75 | 29300 | 22000 | 3.9 | –
3 | C=CCn1c2c(c(=O)[nH]c1=O)CCCCC2c1ccccc1 (stereo not drawn) [APCP] | 1300 | – | – | 28600 | – | – | – | – | – | – | – | – | 38.46 | 62000 | 50000 | 2.17 | –
4 | Enfuvirtide [T20] | – | – | – | – | – | – | – | – | – | – | – | – | – | – | – | – | Inhibitory activity in time-of-addition assay (HIV-1SF33; added one hour after viral infection, T-20 5 μM): no inhibitory activity
5 | O=c1[nH]c(=O)n(COCc2ccccc2)c2c1CCCCC2c1ccccc1 (stereo not drawn) [BmPCP] | 340 | 1720 ± 370 | demonstrated antiviral activity | 1960 | 320 ± 150 | 440 ± 170 | 590 ± 340 | 250 ± 30 | 530 ± 70 | 1470 ± 430 | 1760 ± 230 | 1450 ± 210 | 266 | 90300 | 129000 | 84 | CC50 at 3 days [4]: 90000 to 165000 nM; SI (Selectivity index = CC50/IC50) (HIV-1 SF33 [2]): 67; IC50 [5]: 1510 nM; IC50, level over HIV-1 strains (HIV-1): low μM levels; CC50 (TZM-bl cells): 90300 nM; CC90 at 3 days (XTT cytotoxicity assay; MT4 cells): 383000 ± 53500 nM; CC50 at 3 days (XTT cytotoxicity assay; PBMCs (non-stimulated), PBMC): 114000 ± 9380 nM; CC90 at 3 days (XTT cytotoxicity assay; PBMCs (non-stimulated), PBMC): 229000 ± 6400 nM; CC90 at 3 days (XTT cytotoxicity assay; TZM-bl cells): 208000 ± 8690 nM; CC50 (MT4 cells): 165000 nM; SI (Selectivity index = CC50/IC50) (HIV-1 AH259): 282; SI (Selectivity index = CC50/IC50) (HIV-1 AH968): 205; IC50 (HIV-1 XJ6291): 570 ± 20 nM; SI (Selectivity index = CC50/IC50) (HIV-1 XJ6291; primary isolate XJ6291, subtype B'/C, R5, PBMCs): 158; SI (Selectivity index = CC50/IC50) (HIV-1 XJ0793): 361; SI (Selectivity index = CC50/IC50) (HIV-1 XJ257): 170; SI (Selectivity index = CC50/IC50) (HIV-1 1617-1; 1617-1/PBMCs): 65; SI (Selectivity index = CC50/IC50) (HIV-1 1617-1; 1617-1/TZM-bl): 62
6 | O=c1[nH]c(=O)n(Cc2ccccc2)c2c1CCCCC2c1ccccc1 (stereo not drawn) [BPCP] | 9000 | – | – | 115000 | – | – | – | – | – | – | – | – | 20 | 132000 | 180000 | 1.15 | –

Source: publication PMC3121703, “Inhibitory activity of 9-phenylcyclohepta[d]pyrimidinedione derivatives against different strains of HIV-1 as non-nucleoside reverse transcriptase inhibitors” (Virology Journal, 2011)
